Experimental findings from patent US20230416268A1, “PYRIMIDINONE-CONTAINING 17-BETA-HYDROXYSTEROID DEHYDROGENASE TYPE 13 INHIBITORS” (ENANTA PHARMACEUTICALS, INC., priority 2022, published 2023) are described below.

By IC50 is commonly meant the concentration needed to halve the response being measured.

The target in the assay is Recombinant human 17β-HSD13 (Homo sapiens (Human), UniProt Q7Z5P4). The assay can be described thus: 17β-HSD13 rapid-fire mass spectrometry assay (RF/MS assay). In kind it is biochemical. Conditions: HSD17B13 80 nM, LTB4 10 μM, NAD+ 0.5 mM, RT 3 h, RF/MS readout. As to the method:
17β-HSD13 rapid-fire mass spectrometry assay (RF/MS assay). Recombinant human 17β-HSD13 was expressed and purified from sf9 cells at Charles River Labs (Saffron Walden, UK). […] The assays were quenched by adding 20 μL of 0.15% aqueous formic acid and the plates were frozen at −80° C. RF/MS analysis was performed at PureHoney Technologies (Billerica, MA) on a RapidFire RF300 system (Agilent Technologies, Inc.) coupled to an API 4000 triple quadrupole mass spectrometer (Sciex) equipped with Agilent RapidFire cartridge type A (C4). The mobile phase was 0.09% formic acid and 0.01% trifluoracetic acid in water (Buffer A) and 0.09% formic acid and 0.01% trifluoracetic acid in 80% aqueous acetonitrile (Buffer B). The RapidFire method conditions were the following: 250 ms aspirate, 3000 ms load/desalt, 4000 ms elute, and 500 ms re-equilibrate. RF-MS/MS was performed in negative polarity (−4500 V), the source temperature was 650° C., and gas 1 and gas 2 settings for nitrogen were set to 50. The curtain gas and collision gas were also nitrogen and were set to 20 and 12, respectively.
Data Analysis. 17β-HSD13 enzyme activity was measured as percent conversion of extracted ion counts and normalized to high and low controls to determine percent residual activity at various concentrations of test compounds. Data were fitted to normalized activity (variable slope) versus concentration fit in GraphPad Prism 7 to determine IC50. All experiments were run in duplicates.

Structures are written as SMILES.

Chain of Recombinant human 17β-HSD13 (Q7Z5P4 20-300): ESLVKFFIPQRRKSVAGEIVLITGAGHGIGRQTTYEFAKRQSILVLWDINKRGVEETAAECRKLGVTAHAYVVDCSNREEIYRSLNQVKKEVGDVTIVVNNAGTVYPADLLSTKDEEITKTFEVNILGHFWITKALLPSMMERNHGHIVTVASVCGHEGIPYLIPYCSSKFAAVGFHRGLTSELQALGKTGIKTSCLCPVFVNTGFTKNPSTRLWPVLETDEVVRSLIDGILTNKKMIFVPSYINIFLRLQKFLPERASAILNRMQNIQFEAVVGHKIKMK

For the compound `COc1ccc(-c2nc3sc4c(O)cccc4c3c(=O)n2Cc2cc(C)no2)c(C2CC2)c1` [Example 66], the IC50 is less than 100 nM.
Next, `COc1ccc(-c2nc3sc4c(O)cccc4c3c(=O)n2Cc2cnc(C)o2)c(C2CC2)c1` [Example 67]: less than 100 nM; `O=c1c2c(nc(-c3ccc(F)cc3C3CC3)n1Cc1ccno1)sc1c(O)cccc12` [Example 68]: less than 100 nM; `O=c1c2c(nc(-c3ccc(F)cc3C3CC3)n1Cc1cnco1)sc1c(O)cccc12` [Example 69]: less than 100 nM.
Next, `O=c1c2c(nc(-c3ccc(F)cc3C3CC3)n1Cc1cnoc1)sc1c(O)cccc12` [Example 70]: less than 100 nM.
For the compound `COc1ccc(-c2nc3sc4c(OP(=O)(O)O)cccc4c3c(=O)n2Cc2nnn(C)n2)c(C2CC2)c1` [Example 71], the IC50 lay within 1000 to 10000 nM.
Consider `O=c1c2c(nc(-c3ccc(F)cc3C3CC3)n1CCn1ccc(C3CC3)n1)sc1c(O)cccc12` [Example 72], for which the IC50 lay in the range of 100 to 1000 nM.
The value for `Cc1cc(Cn2c(-c3ccc(F)cc3C3CC3)nc3sc4c(O)cccc4c3c2=O)on1` [Example 73] was 1000 to 10000 nM; that for `Cc1ncc(Cn2c(-c3ccc(F)cc3C3CC3)nc3sc4c(O)cccc4c3c2=O)o1` [Example 75] was less than 100 nM.
Next, `O=c1c2c(nc(-c3ccc(F)cc3C3CC3)n1Cc1cc(C(F)(F)F)no1)sc1c(O)cccc12` [Example 77]: less than 100 nM; `O=c1c2c(nc(-c3ccc(F)cc3C3CC3)n1CCn1cnnc1)sc1c(O)cccc12` [Example 78]: 100 to 1000 nM; `O=c1c2c(nc(-c3ccc(F)cc3C3CC3)n1CCn1nccn1)sc1c(O)cccc12` [Example 79]: less than 100 nM.
The value for `O=c1c2c(nc(-c3ccc(F)cc3C3CC3)n1CCn1ccnn1)sc1c(O)cccc12` [Example 80] was less than 100 nM; that for `O=c1c2c(nc(-c3ccc(F)cc3C3CC3)n1CCn1cnnn1)sc1c(O)cccc12` [Example 81] was less than 100 nM; that for `CC(C)Oc1ccc(-c2nc3sc4c(O)cccc4c3c(=O)n2Cc2ccno2)c(C2CC2)c1` [Example 82] was less than 100 nM.
`CC(C)Oc1ccc(-c2nc3sc4c(O)cccc4c3c(=O)n2Cc2cnco2)c(C2CC2)c1` [Example 83]: the IC50 was less than 100 nM.
On to `O=c1c2c(nc(-c3ccc(F)cc3C3CC3)n1CCCc1nccs1)sc1c(O)cccc12` [Example 84], for which the IC50 was less than 100 nM.
For the compound `O=c1c2c(nc(-c3ccc(F)cc3C3CC3)n1CCCc1nc3ccccc3s1)sc1c(O)cccc12` [Example 85], the IC50 is less than 100 nM.
Next, `O=c1c2c(nc(-c3ccc(F)cc3C3CC3)n1CCCc1nc3ccccc3o1)sc1c(O)cccc12` [Example 86]: less than 100 nM; `COc1ccc(-c2nc3sc4c(OC(=O)C(C)C)cccc4c3c(=O)n2Cc2cnco2)c(C2CC2)c1` [Example 88]: 1000 to 10000 nM.
Next, `COc1ccc(-c2nc3sc4c(OC(=O)C(C)(C)C)cccc4c3c(=O)n2Cc2cnco2)c(C2CC2)c1` [Example 89]: greater than 10000 nM; `COc1ccc(-c2nc3sc4c(O)ccc(Cl)c4c3c(=O)n2Cc2cnco2)c(C2CC2)c1` [Example 91]: less than 100 nM.
